# Legend:
# [1] = system: 3T3 Swiss fibroblast monolayers; assay: Scratch wound closure in vitro; format: cell-based, mouse; conditions: for Scratch wound closure at 5 μM, % of control: 12 h (Table 6); for Wound Closure (% over control): 10 μM, 12 h (Table 4)
# Experimental: 3T3 fibroblasts were seeded into 24-well dishes at a concentration of 3×10^5 cells/ml and cultured to nearly confluent cell monolayers. On the day of the experiment, a linear wound was generated in the monolayer with a sterile 100 μl plastic pipette tip and any cellular debris was removed by washing cells once with sterile PBS. Fresh DMEM medium containing vehicle (0.1% ethanol), positive control (0.5% FBS), or various concentrations of the fractions, sub-fractions or pure compounds was added to a set of 3 wells per dose and incubated for 12 h at 37° C. with 5% CO2. Cells were then visualized with 20 μl of 10% methylene blue in PBS for 5 min. Three representative images of the scratched areas from each well were photographed at 0 and 12 h to estimate the scratch wound closure. Images were analyzed using ImageJ program (NIH, Bethesda, Md.) and % wound closure was calculated relative to vehicle control and was reported as wound closure % over control (Table 4). 3T3 Swiss fibroblast were seeded into 24-well tissue culture at a concentration of 3×10^5 cells/ml and cultured to nearly confluent cell monolayers. Then, a linear wound was generated in the monolayer with a sterile 100 μl plastic pipette tip. Any cellular debris was removed by washing with PBS. DMEM medium with vehicle (0.1% ethanol), FBS (1%, positive control), or various concentrations of brassinosteroids were added to a set of 3 wells per dose and incubated for 12 h at 37° C. with 5% CO2. Cells were visualized in 10% methylene blue for 5 minutes. Three representative images from each well of the scratched areas under each condition were photographed to estimate the relative migration of cells at 0 and 12 h post-treatment. Data were analyzed using ImageJ software available online from the National Institutes of Health (rsbweb.nih.gov/ij/) by calculating the percentage of scratch closure at each dose point relative to control.
# L6 rat myotubes = assay: Protein degradation, release of acid-soluble [3H]-phenylalanine; format: cell-based; conditions: 10 μM; for Protein degradation (% decrease over control): 4 h
# Experimental: In some aspects, cell culture experiments were carried out. Rat L6 skeletal muscle cell line CRL-1458 was obtained from ATCC (Manassas, Va.). Myoblasts were routinely maintained in Dulbecco's modified Eagle's medium (DMEM) containing 10% FBS and 0.1% penicillin-streptomycin at 37° C. and 5% CO2. Cells were subcultured into 24-well plates for protein synthesis, degradation, and cell viability studies and into 6-well plates for Western blot analyses (Greiner Bio One, Monroe, N.C.). Once cells reached 90% confluence, differentiation was induced by lowering the serum concentration to 2%, and medium was changed every 2 days. […] NIH 3T3 murine embryonic fibroblast cell line (ATCC #CCL-92) was maintained in DMEM and 10% FBS at 37° C. in 5% CO2, and passaged every 3-4 days.
# In various aspects, protein degradation is measured to determine the effect of brassinosteroid on a particular protein. All known methods for measuring protein degradation are included in the methods of the disclosure. The effect of brassinosteroids on protein degradation was investigated in fully differentiated myotubes as described by Fawcett et al. (Arch. Biochem. Biophys. 385:357-363, 2001) with slight modifications. Fully differentiated myotubes were incubated for 16 h to allow labeling of cellular proteins with 1.5 μCi/mL [^3H]-phenylalanine. […] The incubation was stopped by placing the cells on ice, and protein in the medium was precipitated with 5% trichloroacetic acid. Specific radioactivity of protein-free phenylalanine was quantified using liquid scintillation counter LS 6500 (Beckman Coulter, Fullerton, Calif.) and normalized to mg of total cell protein determined by BCA protein assay (Pierce Biotechnology, Rockford, Ill.).
# The bioactivity of HB and its analogs (as shown in Table 3) were also evaluated by measuring decreases in protein degradation in the L6 rat skeletal muscle cells in vitro. Cells were labeled overnight with [^3H]-phenylalanine and subsequently treated for 4 h in triplicate with vehicle (0.1% ethanol) or test compound (10 μM), and protein degradation was assessed as release of acid-soluble [^3H]-phenylalanine into the media normalized by total protein (Table 3).
Structure (SMILES),"Scratch wound closure at 5 μM, % of control [1]","Scratch wound closure at 5 μM, % of control ([1]; listed as HB)",Wound Closure (% over control) [1],Protein degradation (% decrease over control) (L6 rat myotubes),decrease in protein degradation vs control levels (L6 rat myotubes; 4 h (FIG. 2C)),"fibroblast migration activity in words ([1]; 0.1-10 μM, 12 h)","effect of structural modification on protein degradation activity, in words (L6 rat myotubes)"
"CC[C@@H](C(C)C)[C@H](O)[C@@H](O)[C@@H](C)[C@H]1CC[C@H]2[C@@H]3COC(=O)[C@H]4C[C@H](O)[C@H](O)C[C@]4(C)[C@H]3CC[C@]12C [Compound 1, (22S,23S,24S)-2α,3α,22,23-tetrahydroxy-24 ethyl-β-homo-7-oxo-5α-cholestane-6-one]",30 ± 4.2 %,30±4.2%,30.2 ± 11.2 %,−24.1 ± 5.5 %,9.5±0.9%,–,–
"CC[C@@H](C(C)C)[C@H](O)[C@@H](O)[C@@H](C)[C@H]1CC[C@H]2[C@@H]3CC(=O)[C@H]4C[C@H](O)[C@H](O)C[C@]4(C)[C@H]3CC[C@]12C [Compound 2, (22S,23S,24S)-2α,3α, 22,23-tetrahydroxy-24-ethyl-5α-cholestan-6-one]",32.9 ± 4.1 %,–,32.9 ± 14.1 %,−23.1 ± 4.2 %,–,–,–
"CC[C@@H](C(C)C)[C@H](O)[C@@H](O)[C@@H](C)[C@H]1CC[C@H]2[C@@H]3CC(=O)N[C@H]4C[C@H](O)[C@H](O)C[C@]4(C)[C@H]3CC[C@]12C [Compound 5, (22S,23S,24S)-2α,3α-22,23-tetrahydroxy-24-ethyl-B-homo-6-aza-5α-cholestan-7-one]",13.0 ± 0.7%,–,–,−13.6 ± 3.8%,–,no effect on fibroblast migration,only a minor effect on its biological activity
